Source: article PMC12030165, “Bioactivity of Synthesized Trifluoromethyl Thioxanthone Analogues” (Pharmaceuticals, 2025)

What was measured:
[1] = DPPH antioxidant activity assay
Procedure: To evaluate four synthesized compounds and Trolox (as a positive control), a 1 mg/mL concentration in methanol was first made from phenyl alcohol. The prepared solution was produced in concentrations of 1, 2, 3, 5, 7, 10, 20, 30, 50, and 80 µg/mL. The DPPH reagent was then diluted in 0.002% w/v methanol and combined in a […] ratio with the previously produced working concentrations. A blank solution of 100% methanol was used. All solutions were incubated at room temperature for 30 min in a dark environment. Their absorbance values were then determined using a UV-visible spectrophotometer set at a wavelength of 517 nm. The antioxidant capacity of each chemical compound fraction and Trolox were calculated using the following formula:% inhibition = ((Abs blank − Abs Sample)/Abs Blank) × 100 where:
Abs blank: Absorbance value of the control reaction containing all reagents except the synthesized compound.
Abs sample: The absorbance value of the synthesized compound [48].

[2] = design: method as in PMID 35200663; details: cell line not given; cited from earlier work
HeLa cells = tested on: HeLa cells; design: method as in PMID 31200286; details: same cell line; read-out: IC50 against HeLa cells, positive control; cited from earlier work

With `Cc1c(C)c2c(c(C)c1O)CCC(C)(C(=O)O)O2` (stereo not drawn) [Trolox, reference compound] the “% inhibition of DPPH radical (radical scavenging)” value (from here on “% inhibition of DPPH radical”) ([1]; 1 µg/mL) was 30.5 ± 2.2%, the “% inhibition of DPPH radical” value ([1]; 2 µg/mL) was 23.6 ± 1.3% and the “% inhibition of DPPH radical” value ([1]; 3 µg/mL) was 61.4 ± 5.3%. For the same compound, the “% inhibition of DPPH radical” value ([1]; 5 µg/mL) was 90.7± 11.3%, the “% inhibition of DPPH radical” value ([1]; 7 µg/mL) was 95.3 ± 10.7% and the “% inhibition of DPPH radical” value ([1]; 10 µg/mL) was 95.9± 9.5%. The “% inhibition of DPPH radical” value ([1]; 20 µg/mL) was 96.7 ± 12.5%, the “% inhibition of DPPH radical” value ([1]; 30 µg/mL) was 97.2 ± 8.5% and the “% inhibition of DPPH radical” value ([1]; 50 µg/mL) was 98.1± 9.2%. For the same compound, the “% inhibition of DPPH radical” value ([1]; 80 µg/mL) was 98.9± 11.8%.

In the case of `C=C1C(=O)O[C@H]2/C=C(\C)CC/C=C(\C)CCC(=O)[C@]3(C)O[C@@H]3C[C@@H]12` [crassocolide N], the “cytotoxicity IC50” value [2] is given as 4.7 µg/mL.

For `COc1cccc2c1C(=O)c1c(O)c3c(c(O)c1C2=O)C[C@@](O)(C(=O)CO)C[C@@H]3O[C@H]1C[C@H](N)[C@H](O)[C@H](C)O1` [doxorubicin], the IC50 (HeLa cells) is given as 1100 ± 15 nM.
